Structures can show the parent of a compound that is named as a salt.

33 molecules from patent US20260193180A1, “AUTOPHAGY INDUCING COMPOUNDS AND USES THEREOF” (SAMSARA THERAPEUTICS INC., priority 2022, published 2026) can be followed below.

The test system of this assay is Human osteosarcoma U2OS cells. Briefly: Acidic vesicle formation (lysosome/autolysosome staining, LysoView 633 / LysoTracker Deep Red), stimulation of autophagy. The assay is classed as cell-based. The note with it: 24 hours; for activation at 10 µM: read-out: increase in acidic vesicle formation over the DMSO-treated control; for activation at 0.8 µM: read-out: Activity (percentage increase in acidic vesicle formation over the DMSO-treated control). How it is done:
Lysosomes play a fundamental role in the autophagic pathway by fusing with autophagosomes and creating ‘autolysosomes’ in order to digest their contents. Stimulation of lysosome and autolysosome formation by a compound is indicative of a stimulation of autophagy. The ability of compounds to stimulate lysosome and autolysosome formation, and thus autophagy, in live cells was assessed via fluorescent microscopy using various fluorescent stains for labelling and tracking acidic organelles (including lysosomes and autolysosomes) such as: LysoView™ 650 (70059 and 70059-T, Biotium), LysoView™633 (70058 and 70058-T, Biotium) and LysoTracker™ Deep Red (L12492, ThermoFisher Scientific). The cellular phenotype was quantitatively assessed for the induction of acidic vesicle formation and compared to a non-treated control, thus providing a measure of the ability of the compound under investigation to stimulate autophagy.
Representative procedure using LysoView™633 dye or LysoTracker™ Deep Red dye: Human osteosarcoma U2OS cells (40,000 cells/well) were seeded in a 24 well glass bottom plate (Sensoplate, Greiner Bio-One) and were incubated overnight in a humidified atmosphere at 37° C. and 5% CO2. Cells were grown in DMEM (Gibco) supplemented with 10% Fetal Bovine Serum (FBS) and 100 units/ml penicillin and 100 μg/ml streptomycin (Invitrogen). After the attachment period, cells were treated with different compounds of interest (at various concentrations in DMSO) or DMSO (non-treated control) in cell culture medium and were incubated for 24 hours. Compound-containing medium was removed and cells were incubated with pre-warmed cell culture medium containing 1× LysoView™ 633 (70058 and 70058-T, Biotium) or 50 nM LysoTracker™ Deep Red (L12492, ThermoFisher Scientific) for 45 minutes at 37° C. Finally, cell nuclei were stained for 10 minutes using Hoechst 33342 (1 μg/mL) and then the medium was replaced with fresh medium. The 24 well plate was then fitted into a heated stage on the microscope and cells maintained at 37° C. Images were captured using appropriate filter set for Cy5 and DAPI detection with the EVOS M7000 Microscope (ThermoFisher Scientific). The cellular phenotype was visually assessed for the induction of acidic vesicle formation relative to the non-treated control; multiple images were acquired and analysed using ImageJ or Cell Profiler.

For the molecule `CCOc1ccc(C(F)(F)F)cc1CN1CCN[C@@H](C)C1` [Compound 1, (S)-1-(2-ethoxy-5-(trifluoromethyl)benzyl)-3-methylpiperazine hydrochloride], the activation at 10 µM was ≥ 25%.
As for `CCOc1ccc(C(F)(F)F)cc1CN1CC[C@@H](CN)C1` [Compound 2, (S)-(1-(2-ethoxy-5-(trifluoromethyl)benzyl)pyrrolidin-3-yl)methanamine hydrochloride], the activation at 0.8 µM fell in the range of 10 to 30% and the activation at 10 µM is ≥ 25%.
Consider `CCCOc1ccc(Cl)cc1CN1CC[C@@H](CN)C1` [Compound 3, (S)-(1-(5-chloro-2-propoxybenzyl)pyrrolidin-3-yl)methanamine hydrochloride], for which the activation at 0.8 µM fell in the range of 30 to 50% and the activation at 10 µM is ≥ 25%.
For `NC[C@@H]1CCN(Cc2cc(Cl)ccc2OCC2CC2)C1` [Compound 4, (S)-(1-(5-chloro-2-(cyclopropylmethoxy)benzyl)pyrrolidin-3-yl)methanamine hydrochloride], the activation at 0.8 µM was in the range of 30 to 50% and the activation at 10 µM is ≥ 25%.
Regarding `CCOc1cc(Cl)c(Cl)cc1CN1CC[C@@H](CN)C1` [Compound 5, (S)-(1-(4,5-dichloro-2-ethoxybenzyl)pyrrolidin-3-yl)methanamine hydrochloride], the activation at 0.8 µM lay in the range of 30 to 50% and the activation at 10 µM was ≥ 25%.
Turning to `NC[C@@H]1CCN(Cc2cc(Cl)c(Cl)cc2OCC2CC2)C1` [Compound 6, (S)-(1-(4,5-dichloro-2-(cyclopropylmethoxy)benzyl)pyrrolidin-3-yl)methanamine hydrochloride], the activation at 0.8 µM was in the range of 50 to 100% and the activation at 10 µM was ≥ 25%.
As to `CCOc1ccc(Cl)cc1CN1CCC[C@@H](CN)C1` [Compound 7, (S)-(1-(5-chloro-2-ethoxybenzyl)piperidin-3-yl)methanamine hydrochloride], the activation at 0.8 µM was 30 to 50% and the activation at 10 µM was ≥ 25%.
`NC[C@@H]1CCCN(Cc2cc(Cl)ccc2OCC2CC2)C1` [Compound 8, (S)-(1-(5-chloro-2-(cyclopropylmethoxy)benzyl)piperidin-3-yl)methanamine hydrochloride]: the activation at 0.8 µM lay in the range of 10 to 30% and the activation at 10 µM was ≥ 25%.
Take `CCOc1ccc(Cl)cc1CN1CCN(CC)CC1` [Compound 10, 1-(5-chloro-2-ethoxybenzyl)-4-ethylpiperazine]: the activation at 0.8 µM fell in the range of 10 to 30% and the activation at 10 µM is ≥ 25%.
Regarding `CCOc1ccc(Cl)cc1CN1CCC(N(C)C)CC1` [Compound 11, 1-(5-chloro-2-ethoxybenzyl)-N,N-dimethylpiperidin-4-amine], the activation at 0.8 µM was in the range of 10 to 30% and the activation at 10 µM is ≥ 25%.
In the case of `CCOc1ccc(Cl)cc1CN1CCC[C@H]1CN` [Compound 13, (S)-(1-(5-chloro-2-ethoxybenzyl)pyrrolidin-2-yl)methanamine hydrochloride], the activation at 10 µM is ≥ 25%.
Take `CCOc1ccc(Cl)cc1CN1CCC[C@@H]1CN` [Compound 14, (R)-(1-(5-chloro-2-ethoxybenzyl)pyrrolidin-2-yl)methanamine hydrochloride]: the activation at 10 µM is ≥ 25%.
In the case of `CCOc1ccc(Cl)cc1CN1CCC[C@@H](N)C1` [Compound 15, (R)-1-(5-chloro-2-ethoxybenzyl)piperidin-3-amine hydrochloride], the activation at 0.8 µM lay within 10 to 30% and the activation at 10 µM is ≥ 25%.
Consider `CCOc1ccc(Cl)cc1CN1CCC[C@H](N)C1` [Compound 16, (S)-1-(5-chloro-2-ethoxybenzyl)piperidin-3-amine hydrochloride], for which the activation at 10 µM was ≥ 25%.
As for `CCOc1ccc(Cl)cc1CN1CC(CN)C1` [Compound 17, (1-(5-chloro-2-ethoxybenzyl)azetidin-3-yl)methanamine hydrochloride], the activation at 0.8 µM was in the range of 50 to 100% and the activation at 10 µM was ≥ 25%.
Take `CCOc1ccc(Cl)cc1CN1CCN(C(C)C)CC1` [Compound 18, 1-(5-chloro-2-ethoxybenzyl)-4-isopropylpiperazine]: the activation at 0.8 µM was in the range of 10 to 30% and the activation at 10 µM was ≥ 25%.
For the molecule `CCOc1ccc(Cl)cc1CCN1CCC[C@H](N)C1` [Compound 19, (S)-1-(5-chloro-2-ethoxyphenethyl)piperidin-3-amine hydrochloride], the activation at 10 µM was ≥ 25%.
Regarding `NC[C@@H]1CCN(CCc2ccc(OCC3CC3)c(Cl)c2)C1` [Compound 20, (S)-(1-(3-chloro-4-(cyclopropylmethoxy)phenethyl)pyrrolidin-3-yl)methanamine hydrochloride], the activation at 10 µM is ≥ 25%.
Regarding `CCOc1cc(F)c(F)cc1CN1CC[C@H](CN)C1` [Compound 21, (R)-(1-(2-ethoxy-4,5-difluorobenzyl)pyrrolidin-3-yl)methanamine hydrochloride], the activation at 10 µM was ≥ 25%.
On to `CCOc1cc(F)c(F)cc1CN1CC[C@@H](CN)C1` [Compound 22, (S)-(1-(2-ethoxy-4,5-difluorobenzyl)pyrrolidin-3-yl)methanamine hydrochloride], for which the activation at 10 µM is ≥ 25%.
As for `NC[C@H]1CCN(Cc2cc(Cl)ccc2OCCO)C1` [Compound 24, (R)-2-(2-((3-(aminomethyl)pyrrolidin-1-yl)methyl)-4-chlorophenoxy)ethan-1-ol hydrochloride], the activation at 10 µM is ≥ 25%.
Take `NC[C@@H]1CCN(Cc2cc(Cl)ccc2OCCO)C1` [Compound 25, (S)-2-(2-((3-(aminomethyl)pyrrolidin-1-yl)methyl)-4-chlorophenoxy)ethan-1-ol hydrochloride]: the activation at 0.8 µM lay in the range of 30 to 50% and the activation at 10 µM was ≥ 25%.
`CCCCOc1ccc(Cl)cc1CN1CC[C@H](CN)C1` [Compound 26, (R)-(1-(2-butoxy-5-chlorobenzyl)pyrrolidin-3-yl)methanamine hydrochloride]: the activation at 0.8 µM is > 100% and the activation at 10 µM was ≥ 25%.
The corresponding values for `CCCCOc1ccc(Cl)cc1CN1CC[C@@H](CN)C1` [Compound 27, (S)-(1-(2-butoxy-5-chlorobenzyl)pyrrolidin-3-yl)methanamine hydrochloride] are > 100% and ≥ 25%.
For `CCOc1ccc(Cl)cc1CN1CCO[C@@H](CN)C1` [Compound 28, (S)-(4-(5-chloro-2-ethoxybenzyl)morpholin-2-yl)methanamine hydrochloride], the activation at 0.8 µM lay within 10 to 30% and the activation at 10 µM is ≥ 25%.
As to `CCOc1ccc(Cl)cc1CN1CCO[C@H](CN)C1` [Compound 29, (R)-(4-(5-chloro-2-ethoxybenzyl)morpholin-2-yl)methanamine hydrochloride], the activation at 0.8 µM fell in the range of 50 to 100% and the activation at 10 µM was ≥ 25%.
On to `CCOc1cc(Cl)cc(CN2CC[C@@H](CN)C2)c1` [Compound 31, (S)-(1-(3-chloro-5-ethoxybenzyl)pyrrolidin-3-yl)methanamine hydrochloride], for which the activation at 0.8 µM was > 100% and the activation at 10 µM is ≥ 25%.
For the molecule `CCCOc1ccc(OC(F)(F)F)cc1CN1CCN[C@@H](C)C1` [Compound 32, (S)-3-methyl-1-(2-propoxy-5-(trifluoromethoxy)benzyl) piperazine hydrochloride], the activation at 0.8 µM is 50 to 100% and the activation at 10 µM is ≥ 25%.
Turning to `NC[C@@H]1CCN(CCc2cc(Cl)cc3c2OCO3)C1` [Compound 33, (S)-(1-(2-(6-chlorobenzo[d][1,3]dioxol-4-yl)ethyl)pyrrolidin-3-yl)methanamine hydrochloride], the activation at 10 µM is ≥ 25%.
Take `CCOc1ccc(Cl)c(Cl)c1CCN1CC[C@@H](CN)C1` [Compound 34, (S)-(1-(2,3-dichloro-6-ethoxyphenethyl)pyrrolidin-3-yl)methanamine hydrochloride]: the activation at 10 µM is ≥ 25%.
The same measure, in the same setting: the result for `CCOc1cc(Cl)c(Cl)cc1CCN1CC[C@@H](CN)C1` [Compound 35, (S)-(1-(4,5-dichloro-2-ethoxyphenethyl)pyrrolidin-3-yl)methanamine hydrochloride] reads ≥ 25%.
For the molecule `CCOc1ccc(C(F)(F)F)cc1CN1CCN[C@H](C)C1` [Compound 36, (R)-1-(2-ethoxy-5-(trifluoromethyl)benzyl)-3-methylpiperazine hydrochloride], the activation at 0.8 µM lay within 10 to 30% and the activation at 10 µM was ≥ 25%.
For the molecule `CCOc1cc(Cl)c(Cl)cc1CN1CCN[C@@H](C)C1` [Compound 37, (S)-1-(4,5-dichloro-2-ethoxybenzyl)-3-methylpiperazine hydrochloride], the activation at 0.8 µM was 10 to 30% and the activation at 10 µM was ≥ 25%.
